From ChEMBL document CHEMBL1201862, “PubChem BioAssay data set” (2004)
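Test compounds were applied to cells in 96-well plates for 48 hours at 5 doses. The concentration for 50% growth inhibition is given as GI50.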 Calls of active or inactive are those of the source. Cut-off read from the data, not from the text of the source: active = GI50 up to about 1.1 µM and inactive = higher.

Assays:
Test in all cases: NCI anticancer screen, dose series, 48 h
UACC-62 = tested on: UACC-62
SK-MEL-28 = tested on: SK-MEL-28
SW-620 = tested on: SW-620
UO-31 = tested on: UO-31
HL-60 = tested on: HL-60
MDA-MB-435 = tested on: MDA-MB-435
RPMI-8226 = tested on: RPMI-8226
UACC-257 = tested on: UACC-257
DU-145 = tested on: DU-145
HCT-116 = tested on: HCT-116
COLO 205 = tested on: COLO 205
OVCAR-5 = tested on: OVCAR-5
CAKI-1 = tested on: CAKI-1
SF-295 = tested on: SF-295
NCI-H522 = tested on: NCI-H522
HCT-15 = tested on: HCT-15
BT-549 = tested on: BT-549
NCI/ADR-RES = tested on: NCI/ADR-RES
SK-OV-3 = tested on: SK-OV-3
OVCAR-8 = tested on: OVCAR-8
MDA-MB-231 = tested on: MDA-MB-231
786-0 = tested on: 786-0
ACHN = tested on: ACHN
A498 = tested on: A498
K562 = tested on: K562
HOP-62 = tested on: HOP-62
LOX IMVI = tested on: LOX IMVI
KM12 = tested on: KM12
OVCAR-3 = tested on: OVCAR-3
T47D = tested on: T47D
SF-539 = tested on: SF-539
SK-MEL-2 = tested on: SK-MEL-2
CCRF-CEM = tested on: CCRF-CEM
MOLT-4 = tested on: MOLT-4
NCI-H460 = tested on: NCI-H460
NCI-H226 = tested on: NCI-H226
Hs-578T = tested on: Hs-578T
Malme-3M = tested on: Malme-3M
SK-MEL-5 = tested on: SK-MEL-5
NCI-H23 = tested on: NCI-H23
MDA-N = tested on: MDA-N
SN12C = tested on: SN12C
OVCAR-4 = tested on: OVCAR-4
SR = tested on: SR
SNB-75 = tested on: SNB-75
MCF7 = tested on: MCF7
HT-29 = tested on: HT-29
PC-3 = tested on: PC-3
TK-10 = tested on: TK-10
EKVX = tested on: EKVX
IGROV-1 = tested on: IGROV-1
A549 = tested on: A549
M14 = tested on: M14
RXF 393 = tested on: RXF 393
SF-268 = tested on: SF-268
U-251 = tested on: U-251
SNB-19 = tested on: SNB-19
HOP-92 = tested on: HOP-92
HCC 2998 = tested on: HCC 2998

Measured: GI50

CN(CCCn1ccnc1[N+](=O)[O-])CCCn1ccnc1[N+](=O)[O-]
> 100 µM: HCT-15
inactive: UACC-62 > 100 µM | SK-MEL-28 > 100 µM | SW-620 > 100 µM | UO-31 > 100 µM | HL-60 > 100 µM | MDA-MB-435 > 100 µM | RPMI-8226 > 100 µM | UACC-257 > 100 µM | DU-145 > 100 µM | HCT-116 > 100 µM | COLO 205 > 100 µM | OVCAR-5 > 100 µM | CAKI-1 > 100 µM | SF-295 > 100 µM | NCI-H522 > 100 µM | BT-549 > 100 µM | NCI/ADR-RES > 100 µM | SK-OV-3 > 100 µM | OVCAR-8 > 100 µM | MDA-MB-231 > 100 µM | 786-0 > 100 µM | ACHN > 100 µM | A498 > 100 µM | K562 > 100 µM | HOP-62 > 100 µM | LOX IMVI > 100 µM | KM12 > 100 µM | OVCAR-3 > 100 µM | T47D > 100 µM | SF-539 > 100 µM | SK-MEL-2 > 100 µM | CCRF-CEM 8.41 µM | NCI-H460 > 100 µM | NCI-H226 > 100 µM | Hs-578T > 100 µM | Malme-3M > 100 µM | SK-MEL-5 > 100 µM | NCI-H23 > 100 µM | MDA-N > 100 µM | SN12C > 100 µM | OVCAR-4 > 100 µM | SR > 100 µM | SNB-75 > 100 µM | MCF7 > 100 µM | HT-29 > 100 µM | PC-3 > 100 µM | TK-10 > 100 µM | EKVX > 100 µM | IGROV-1 > 100 µM | A549 > 100 µM | M14 > 100 µM | RXF 393 > 100 µM | SF-268 > 100 µM | U-251 > 100 µM
active: MOLT-4 0.0861 µM

COc1ccc(-c2nc(N3CCCC3)no2)cc1
58.9 µM: HCT-15
inactive: UACC-62 31 µM | SNB-19 44.1 µM | SK-MEL-28 > 100 µM | SW-620 > 100 µM | UO-31 49.4 µM | HL-60 1.5 µM | HOP-92 48.4 µM | MDA-MB-435 > 100 µM | RPMI-8226 32.7 µM | UACC-257 > 100 µM | DU-145 43.2 µM | HCT-116 > 91.8 µM | COLO 205 > 100 µM | OVCAR-5 > 86.7 µM | CAKI-1 51.6 µM | SF-295 21.2 µM | NCI-H522 39.1 µM | BT-549 43.3 µM | NCI/ADR-RES 44.5 µM | SK-OV-3 58.9 µM | OVCAR-8 34.5 µM | MDA-MB-231 50.1 µM | 786-0 36.3 µM | ACHN 35.8 µM | A498 31.6 µM | K562 60.3 µM | HOP-62 27.9 µM | HCC 2998 73.5 µM | LOX IMVI 33 µM | KM12 88.5 µM | OVCAR-3 72.8 µM | T47D 26.5 µM | SF-539 24 µM | SK-MEL-2 46.1 µM | CCRF-CEM 20.7 µM | MOLT-4 > 100 µM | NCI-H460 33 µM | NCI-H226 42.7 µM | Hs-578T 24.9 µM | Malme-3M 11.6 µM | SK-MEL-5 53.6 µM | NCI-H23 54.6 µM | MDA-N 67 µM | SN12C 74 µM | OVCAR-4 34 µM | SNB-75 34.1 µM | MCF7 43.2 µM | HT-29 54.7 µM | PC-3 41.6 µM | TK-10 > 100 µM | EKVX 25.9 µM | IGROV-1 18.9 µM | A549 38 µM | M14 81.3 µM | RXF 393 22 µM | SF-268 53 µM | U-251 86.3 µM
